Experimental findings from patent US9260429B2, “Pyrido[3,4-B]indoles and methods of use” (Medivation Technologies, Inc., priority 2008, dated 2016) are described below.

Assay [1] has as its target T1, human recombinant histamine H2 receptor (Homo sapiens, UniProt P25021).
T1 construct: expressed in transfected cells; host or cells: CHO-K1 cells
Briefly: Histamine H2 radioligand binding ([125I]Aminopotentidine). The note with it: 1 μM; inhibition of specific [125I]Aminopotentidine binding; read-out: Binding data (Percentage Inhibition) Histamine Binding (1 μM) H2. The procedure: To evaluate in radioligand binding assays the activity of compounds of the invention, human recombinant histamine H2 receptor expressed in Chinese hamster ovary (CHO) K1 cells (Ruat, M., Proc. Natl. Acad. Sci. USA. 87(5):1658, 1990) in a 50 mM Phosphate buffer, pH 7.4 was used. Compounds of the invention were incubated with 0.1 nM [^125I]Aminopotentidine for 120 minutes at 25° C. Non-specific binding was estimated in the presence of 3 μM Tiotidine. Receptor proteins were filtered and washed, the filters were then counted to determine [^125I]Aminopotentidine specifically bound. Compounds were screened at 1 μM or lower, using 1% DMSO as vehicle. Biochemical assay results are presented as the percent inhibition of specific binding in Table 3.

Assay [2] addresses T2, human recombinant serotonin (5-Hydroxytryptamine) 5-HT6 receptor (Homo sapiens, UniProt P50406).
T2 construct: expressed in transfected cells; host or cells: human HeLa cells
As to the kind of experiment: Serotonin 5-HT6 radioligand binding ([3H]LSD). The note with it: 2 h; read-out: Percent Inhibition of ligand binding Serotonin (1 μM ligand concentration) 5-HT6. As for the experimental part: To evaluate in radioligand binding assays the activity of compounds of the invention, human recombinant serotonin (5-Hydroxytryptamine) 5-HT6 receptor expressed in human HeLa cells (Monsma, F. J. Jr. et al., Mol. Pharmacol. 43:320, 1993) in a modified Tris-HCl buffer (50 mM Tris-HCl, pH 7.4, 150 mM NaCl, 2 mM Ascorbic Acid, 0.001% BSA) was used. Compounds of the invention were incubated with 1.5 nM [3H]Lysergic acid diethylamide (LSD) for 120 minutes at 37° C. Non-specific binding was estimated in the presence of […] Serotonin (5-HT). Receptor proteins were filtered and washed, the filters were then counted to determine [3H]LSD specifically bound. Compounds were screened at 1 μM or lower, using 1% DMSO as vehicle. Biochemical assay results are presented as the percent inhibition of specific binding in Table 5.

Assay [3] deals with T3, human recombinant serotonin (5-Hydroxytryptamine) 5-HT7 receptor (Homo sapiens, UniProt P34969).
T3 construct: expressed in transfected cells; host or cells: CHO cells
T3 sequence (P34969 whole entry): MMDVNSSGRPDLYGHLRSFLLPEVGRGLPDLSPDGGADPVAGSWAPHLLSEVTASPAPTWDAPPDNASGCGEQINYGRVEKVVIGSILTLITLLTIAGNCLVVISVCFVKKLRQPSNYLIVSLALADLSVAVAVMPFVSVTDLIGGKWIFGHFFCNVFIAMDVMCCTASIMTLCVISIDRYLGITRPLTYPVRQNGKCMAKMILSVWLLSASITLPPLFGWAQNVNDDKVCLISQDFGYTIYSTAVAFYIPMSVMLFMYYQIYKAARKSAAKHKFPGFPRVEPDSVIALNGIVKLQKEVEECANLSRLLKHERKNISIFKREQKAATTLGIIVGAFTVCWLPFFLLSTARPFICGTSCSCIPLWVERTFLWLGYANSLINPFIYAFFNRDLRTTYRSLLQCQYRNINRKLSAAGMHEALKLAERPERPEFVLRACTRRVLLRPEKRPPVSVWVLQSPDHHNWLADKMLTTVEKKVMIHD
Briefly: Serotonin 5-HT7 radioligand binding ([3H]LSD). The note with it: 2 h; read-out: Percent Inhibition of ligand binding Serotonin (1 μM ligand concentration) 5-HT7. The procedure:
To evaluate in radioligand binding assays the activity of compounds of the invention, human recombinant serotonin (5-Hydroxytryptamine) 5-HT7 receptor expressed in Chinese hamster ovary (CHO) cells (Roth, B. L. et al., J. Pharmacol. Exp. Ther. 268:1403, 1994; Shen, Y. et al., J. Biol. Chem. 268:18200, 1993) in a modified Tris-HCl buffer (50 mM Tris-HCl, pH 7.4, 10 mM MgCl2, 0.5 mM EDTA) was used. Compounds of invention were incubated with 5.5 nM [^3H]Lysergic acid diethylamide (LSD) for 2 hours at 25° C. Non-specific binding was estimated in the presence of […] Serotonin (5-HT). Receptor proteins were filtered and washed, the filters were then counted to determine [^3H]LSD specifically bound. Compounds were screened at 1 μM or lower, using 1% DMSO as vehicle. Biochemical assay results are presented as the percent inhibition of specific binding in Table 5.

The target in assay [4] is T4, human recombinant serotonin (5-Hydroxytryptamine) 5-HT2A receptor (Homo sapiens, UniProt P28223).
T4 construct: expressed in transfected cells; host or cells: CHO-K1 cells
T4 sequence (P28223 whole entry): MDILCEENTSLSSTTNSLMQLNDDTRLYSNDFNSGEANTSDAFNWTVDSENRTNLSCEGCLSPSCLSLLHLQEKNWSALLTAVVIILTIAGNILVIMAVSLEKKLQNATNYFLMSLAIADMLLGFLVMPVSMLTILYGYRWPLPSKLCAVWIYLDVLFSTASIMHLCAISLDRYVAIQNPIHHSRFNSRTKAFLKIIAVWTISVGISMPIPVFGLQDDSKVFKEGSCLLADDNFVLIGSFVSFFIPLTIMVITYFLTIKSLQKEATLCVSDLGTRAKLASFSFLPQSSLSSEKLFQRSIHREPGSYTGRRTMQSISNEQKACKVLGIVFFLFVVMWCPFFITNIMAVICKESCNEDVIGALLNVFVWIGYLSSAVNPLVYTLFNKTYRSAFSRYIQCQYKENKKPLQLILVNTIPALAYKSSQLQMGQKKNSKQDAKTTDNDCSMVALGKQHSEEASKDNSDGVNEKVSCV
As to the kind of experiment: Serotonin 5-HT2A radioligand binding ([3H]Ketanserin). The note with it: 1 h; read-out: Percent Inhibition of ligand binding Serotonin (1 μM ligand concentration) 5-HT2A. The procedure:
To evaluate in radioligand binding assays the activity of compounds of the invention, human recombinant serotonin (5-Hydroxytryptamine) 5-HT2A receptor expressed in Chinese hamster ovary (CHO-K1) cells (Bonhaus, D. W. et al. Br. J. Pharmacol. 115:622, 1995; Saucier, C. and Albert, P. R., J. Neurochem. 68:1998, 1997) in a 50 mM Tris-HCl buffer, pH 7.4, was used. Compounds of the invention were incubated with 0.5 nM [^3H]Ketanserin for 60 minutes at 25° C. Non-specific binding was estimated in the presence of 1 μM Mianserin. Receptor proteins were filtered and washed, the filters were then counted to determine [^3H]Ketanserin specifically bound. Compounds were screened at 1 μM or lower, using 1% DMSO as vehicle. Biochemical assay results are presented as the percent inhibition of specific binding in Table 5.

The target in assay [5] is T5, human recombinant serotonin (5-Hydroxytryptamine) 5-HT2C receptor (Homo sapiens, UniProt P28335).
T5 construct: expressed in transfected cells; host or cells: CHO-K1 cells
T5 sequence (P28335 33-458): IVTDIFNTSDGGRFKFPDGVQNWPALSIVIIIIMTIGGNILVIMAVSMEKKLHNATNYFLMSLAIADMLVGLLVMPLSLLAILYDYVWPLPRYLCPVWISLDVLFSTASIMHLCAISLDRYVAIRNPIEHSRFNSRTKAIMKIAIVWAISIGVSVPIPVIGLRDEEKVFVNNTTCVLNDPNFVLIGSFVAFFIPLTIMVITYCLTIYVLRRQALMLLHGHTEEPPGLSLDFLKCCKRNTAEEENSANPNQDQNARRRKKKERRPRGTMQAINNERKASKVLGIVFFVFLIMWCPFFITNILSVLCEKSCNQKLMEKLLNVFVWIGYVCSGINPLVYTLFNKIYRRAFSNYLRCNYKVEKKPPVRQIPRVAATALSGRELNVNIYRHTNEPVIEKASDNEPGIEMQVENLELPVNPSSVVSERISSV
As to the kind of experiment: Serotonin 5-HT2C radioligand binding ([3H]Mesulergine). As to conditions: 1 h; read-out: Percent Inhibition of ligand binding Serotonin (1 μM ligand concentration) 5-HT2C. The procedure:
Compounds of the invention were incubated with 1 nM [^3H]Mesulergine for 60 minutes at 25° C. Non-specific binding was estimated in the presence of 1 μM Mianserin. Receptor proteins were filtered and washed, the filters were then counted to determine [^3H]Mesulergine specifically bound. […] Biochemical assay results are presented as the percent inhibition of specific binding in Table 5.

Assay [6] deals with T6, human recombinant dopamine D2L receptor (Homo sapiens, UniProt P14416).
T6 construct: expressed in transfected cells; host or cells: CHO cells
T6 sequence (P14416 whole entry): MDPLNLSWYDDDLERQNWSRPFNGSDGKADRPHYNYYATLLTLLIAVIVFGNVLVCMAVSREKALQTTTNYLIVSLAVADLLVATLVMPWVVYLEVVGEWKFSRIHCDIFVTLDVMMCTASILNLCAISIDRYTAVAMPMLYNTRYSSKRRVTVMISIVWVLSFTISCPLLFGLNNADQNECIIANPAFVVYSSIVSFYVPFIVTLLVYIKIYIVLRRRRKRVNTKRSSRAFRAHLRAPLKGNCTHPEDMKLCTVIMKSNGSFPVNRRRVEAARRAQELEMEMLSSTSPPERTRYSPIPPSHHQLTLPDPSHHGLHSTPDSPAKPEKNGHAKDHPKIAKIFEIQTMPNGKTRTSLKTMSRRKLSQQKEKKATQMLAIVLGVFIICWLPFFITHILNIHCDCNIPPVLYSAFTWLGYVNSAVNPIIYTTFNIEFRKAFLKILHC
As to the kind of experiment: Dopamine D2L radioligand binding ([3H]Spiperone). The note with it: 2 h, 1 μM ligand conc.; read-out: Percent Inhibition of ligand binding Dopamine (1 μM ligand conc.) D2L. The procedure: To evaluate in radioligand binding assays the activity of compounds of the invention, human recombinant dopamine D2L receptor expressed in Chinese hamster ovary (CHO) cells (Grandy, D. K. et al. Proc. Natl. Acad. Sci. USA. 86:9762, 1989; Hayes, G. et al., Mol. Endocrinol. 6:920, 1992) in a modified Tris-HCl buffer (50 mM Tris-HCl, pH 7.4, 1.4 mM Ascorbic Acid, 0.001% BSA, 150 mM NaCl) was used. Compounds of the invention were incubated with 0.16 nM [^3H]Spiperone for 120 minutes at 25° C. Non-specific binding was estimated in the presence of […] Haloperidol. Receptor proteins were filtered and washed, the filters were then counted to determine [^3H]Spiperone specifically bound. Compounds were screened at 1 μM or lower, using 1% DMSO as vehicle. Biochemical assay results are presented as the percent inhibition of specific binding in Table 4.

Assay [7] concerns the target T7, human recombinant histamine H1 receptor (Homo sapiens, UniProt P35367).
T7 construct: expressed in transfected cells; host or cells: CHO cells
As to the kind of experiment: Histamine H1 radioligand binding ([3H]Pyrilamine). The note with it: 1 μM; read-out: Binding data (Percentage Inhibition) Histamine Binding (1 μM) H1. The procedure:
To evaluate in radioligand binding assays the activity of compounds of the invention, human recombinant histamine H1 receptor expressed in Chinese hamster ovary (CHO) cells (De Backer, M. D. et al., Biochem. Biophys. Res. Comm. 197(3):1601, 1993) in a modified Tris-HCl buffer (50 mM Tris-HCl, pH 7.4, 2 mM MgCl2, 100 mM NaCl, 250 mM Sucrose) was used. Compounds of the invention were incubated with 1.2 nM [^3H]Pyrilamine for 180 minutes at 25° C. Non-specific binding was estimated in the presence of 1 μM pyrilamine. Receptor proteins were filtered and washed, the filters were then counted to determine [^3H]Pyrilamine specifically bound. […] Biochemical assay results are presented as the percent inhibition of specific binding in Table 3.

Each structure is given as a SMILES string.

T1 sequence (P25021 whole entry): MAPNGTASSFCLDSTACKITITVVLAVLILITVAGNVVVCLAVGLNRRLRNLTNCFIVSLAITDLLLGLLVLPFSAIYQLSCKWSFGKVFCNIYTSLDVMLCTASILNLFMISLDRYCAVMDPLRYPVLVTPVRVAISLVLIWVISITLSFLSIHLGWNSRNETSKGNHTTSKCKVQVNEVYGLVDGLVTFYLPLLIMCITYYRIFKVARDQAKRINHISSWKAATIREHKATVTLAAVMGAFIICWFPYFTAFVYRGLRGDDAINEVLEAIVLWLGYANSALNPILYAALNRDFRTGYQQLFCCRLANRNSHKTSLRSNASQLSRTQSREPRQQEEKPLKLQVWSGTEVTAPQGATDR
T2 sequence (P50406 whole entry): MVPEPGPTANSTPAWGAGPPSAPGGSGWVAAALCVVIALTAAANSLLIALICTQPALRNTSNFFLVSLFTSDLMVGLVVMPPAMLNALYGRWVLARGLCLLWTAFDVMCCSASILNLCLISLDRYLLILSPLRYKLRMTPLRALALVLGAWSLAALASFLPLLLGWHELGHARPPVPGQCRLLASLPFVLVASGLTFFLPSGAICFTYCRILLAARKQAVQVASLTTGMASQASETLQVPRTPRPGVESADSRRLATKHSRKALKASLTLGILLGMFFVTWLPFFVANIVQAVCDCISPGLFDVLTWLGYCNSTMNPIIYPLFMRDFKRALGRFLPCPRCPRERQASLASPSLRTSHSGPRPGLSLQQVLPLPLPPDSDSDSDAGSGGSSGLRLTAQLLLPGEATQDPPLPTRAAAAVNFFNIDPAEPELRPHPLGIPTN
T7 sequence (P35367 whole entry): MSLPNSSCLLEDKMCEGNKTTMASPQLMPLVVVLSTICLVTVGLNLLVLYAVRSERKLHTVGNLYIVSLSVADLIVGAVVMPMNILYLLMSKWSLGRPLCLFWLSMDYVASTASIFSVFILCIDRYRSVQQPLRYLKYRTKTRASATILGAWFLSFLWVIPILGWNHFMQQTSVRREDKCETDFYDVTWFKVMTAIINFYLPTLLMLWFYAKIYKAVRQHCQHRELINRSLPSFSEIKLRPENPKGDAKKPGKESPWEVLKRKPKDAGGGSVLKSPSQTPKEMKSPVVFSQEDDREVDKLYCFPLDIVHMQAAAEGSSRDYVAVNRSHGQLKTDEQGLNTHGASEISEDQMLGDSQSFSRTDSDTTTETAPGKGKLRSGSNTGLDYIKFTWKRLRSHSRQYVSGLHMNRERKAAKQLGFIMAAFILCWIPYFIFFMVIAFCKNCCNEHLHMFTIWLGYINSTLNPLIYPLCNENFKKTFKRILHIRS

On to `C/C(=C\n1c2c(c3cc(Cl)ccc31)CCN(C)C2C)c1ccc(F)c(F)c1` (stereo not drawn) [Compound 111, 6-chloro-9-(2-(3,4-difluorophenyl)prop-1-enyl)-1,2-dimethyl-2,3,4,9-tetrahydro-1H-pyrido[3,4-b]indole], for which the inhibition at 1 µM is 61% in assay [1]; 88% in assay [2]; 78% in assay [3]; 79% in assay [4]; 93% in assay [5]; 5% in assay [6]. In addition, in assay [7], the inhibition at 1 µM came to 60%.
`CCC1c2c(c3cc(Cl)ccc3n2/C=C(\C)c2cccnc2)CCN1C` (stereo not drawn) [Compound 108]: the inhibition at 1 µM was 12% in assay [1]; 6% in assay [2]; 62% in assay [3]; 45% in assay [4]; 60% in assay [5]; -4% in assay [6]. Also, in assay [7], the inhibition at 1 µM stood at 30%.
In the case of `C/C(=C/n1c2c(c3cc(C)ccc31)CCN(C)C2C)c1ccc(F)c(F)c1` (stereo not drawn) [Compound 175, 9-(2-(3,4-difluorophenyl)prop-1-enyl)-1,2,6-trimethyl-2,3,4,9-tetrahydro-1H-pyrido[3,4-b]indole], the inhibition at 1 µM in assay [1] was determined as 60%; in assay [2], 77%; in assay [3], 82%; in assay [4], 86%; in assay [5] it was 97%; in assay [6] it was 0%. In addition, in assay [7], the inhibition at 1 µM came to 25%.
`CCC1c2c(c3cc(C)ccc3n2/C=C(\C)c2ccc(Cl)cc2Cl)CCN1C` (stereo not drawn) [Compound 170]: the inhibition at 1 µM in assay [1] is 60%; in assay [2], 36%; in assay [3], 74%; in assay [4] it was 96%; in assay [5], 98%; in assay [6], 1%. The inhibition at 1 µM in assay [7] was 27%.
As for `COc1ccc(/C(C)=C/n2c3c(c4cc(C)ccc42)CCN(C)C3)cc1F` [Compound 121, 9-(2-(3-fluoro-4-methoxyphenyl)prop-1-enyl)-2,6-dimethyl-2,3,4,9-tetrahydro-1H-pyrido[3,4-b]indole], the inhibition at 1 µM in assay [1] turned out to be 50%; in assay [2], 33%; in assay [3], 94%; in assay [4], 96%; in assay [5], 102%; in assay [6], 21%. Besides, the inhibition at 1 µM in assay [7] turned out to be 9%.
Regarding `CCC1c2c(c3cc(C)ccc3n2/C=C(\C)c2ccc(Cl)c(Cl)c2)CCN1C` (stereo not drawn) [Compound 177, 9-(2-(3,4-dichlorophenyl)prop-1-enyl)-1-ethyl-2,6-dimethyl-2,3,4,9-tetrahydro-1H-pyrido[3,4-b]indole], the inhibition at 1 µM in assay [1] worked out at 39%; in assay [2], 6%; in assay [3], 57%; in assay [4], 83%; in assay [5], 88%; in assay [6] it was 9%. In assay [7], the inhibition at 1 µM came out at 11%.
Regarding `C/C(=C\n1c2c(c3cc(C)ccc31)CCN(C)C2)c1ccc(F)c(F)c1` [Compound 109, 9-(2-(3,4-difluorophenyl)prop-1-enyl)-2,6-dimethyl-2,3,4,9-tetrahydro-1H-pyrido[3,4-b]indole], the inhibition at 1 µM in assay [1] was determined as 67%; in assay [2] it was 72%; in assay [3], 96%; in assay [4], 96%; in assay [5], 97%; in assay [6] it was 12%. The inhibition at 1 µM in assay [7] came out at 20%.
For `C/C(=C\n1c2c(c3cc(C)ccc31)CCN(C)C2)c1ccc(Cl)c(Cl)c1` [Compound 113, 9-(2-(3,4-dichlorophenyl)prop-1-enyl)-2,6-dimethyl-2,3,4,9-tetrahydro-1H-pyrido[3,4-b]indole], the inhibition at 1 µM in assay [1] was found to be 81%; in assay [2] it was 49%; in assay [3], 84%; in assay [4], 99%; in assay [5], 91%; in assay [6] it was 9%. For the same molecule, the inhibition at 1 µM in assay [7] worked out at 26%.
Consider `C/C(=C\n1c2c(c3cc(Cl)ccc31)CCN(C)C2)c1ccc(Cl)c(Cl)c1` [Compound 114, 6-chloro-9-(2-(3,4-dichlorophenyl)prop-1-enyl)-2-methyl-2,3,4,9-tetrahydro-1H-pyrido[3,4-b]indole], for which the inhibition at 1 µM in assay [1] came to 75%; in assay [2] it was 42%; in assay [3], 87%; in assay [4], 93%; in assay [5] it was 95%; in assay [6], 8%. For the same molecule, in assay [7], the inhibition at 1 µM came to 30%.
